Assay results: patent US20110077237A1, “KINASE INHIBITORS” (VERTEX PHARMACEUTICALS INCORPORATED, priority 2007, published 2011)

Target: PKC theta (Homo sapiens, UniProt Q04759)
Assay: PKC Theta III assay, similar to PKC theta I with fluorescence read out
Format: biochemical
Settings: fluorescence read out rather than UV
Experimental: An assay buffer solution was prepared which consisted of 100 mM HEPES (pH 7.5), 10 mM MgCl2, 25 mM NaCl, 0.1 mM EDTA and 0.01% Brij. […] To 60 μL of this enzyme buffer, in a 384 well plate, was added 2 μL of VRT stock solution in DMSO. The mixture was allowed to equilibrate for 10 mins at 30° C. The enzyme reaction was initiated by the addition of 5 μL stock ATP solution prepared in assay buffer to a final assay concentration of 240 μM. Initial rate data was determined from the rate of change of absorbance at 340 nm (corresponding to stoichiometric consumption of NADH) using a Molecular Devices Spectramax plate reader (Sunnyvale, Calif.) over 15 mins at 30° C. For each Ki determination 12 data points covering the VRT concentration range of 0-20 μM were obtained in duplicate (DMSO stocks were prepared from an initial 10 mM VRT stock with subsequent 1:2 serial dilutions). Ki values were calculated from initial rate data by non-linear regression using the Prism software package (Prism 4.0a, Graphpad Software, San Diego, Calif.).
Compounds tested in an assay similar to PKC theta I above with a fluorescence read out rather than a UV read out gave the following results: D compounds are (2-aminopyridin-3-yl)(6-(1-benzylpiperidin-4-ylamino)pyridin-2-yl)methanone, and (2-aminopyridin-3-yl)(6-(2,3-dihydroxypropylamino)pyridin-2-yl)methanone (naming by ChemDraw Ultre version 10.0).

PKC theta, sequence (Q04759 whole entry): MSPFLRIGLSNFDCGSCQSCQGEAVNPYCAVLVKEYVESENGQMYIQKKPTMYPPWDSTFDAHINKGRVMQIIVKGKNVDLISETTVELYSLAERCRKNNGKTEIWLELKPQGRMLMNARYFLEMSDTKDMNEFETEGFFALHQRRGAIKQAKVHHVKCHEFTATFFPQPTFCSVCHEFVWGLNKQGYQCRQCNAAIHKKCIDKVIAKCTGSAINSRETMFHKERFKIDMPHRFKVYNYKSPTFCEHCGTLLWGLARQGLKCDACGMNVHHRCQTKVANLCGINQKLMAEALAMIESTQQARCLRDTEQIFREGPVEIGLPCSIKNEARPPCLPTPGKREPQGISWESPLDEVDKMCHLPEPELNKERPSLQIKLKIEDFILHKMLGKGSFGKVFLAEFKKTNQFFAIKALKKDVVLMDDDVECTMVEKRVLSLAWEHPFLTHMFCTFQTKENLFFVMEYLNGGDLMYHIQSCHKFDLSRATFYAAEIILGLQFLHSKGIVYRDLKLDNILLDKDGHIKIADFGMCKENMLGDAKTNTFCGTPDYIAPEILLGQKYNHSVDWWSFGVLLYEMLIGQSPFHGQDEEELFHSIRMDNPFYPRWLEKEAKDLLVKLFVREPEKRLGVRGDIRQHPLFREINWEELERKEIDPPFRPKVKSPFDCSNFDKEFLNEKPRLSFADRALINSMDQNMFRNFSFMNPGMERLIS

Ki: > 2800 nM
Compound: Nc1ncccc1C(=O)c1cccc(NCC(O)CO)n1 (stereo not shown) [(2-aminopyridin-3-yl)(6-(2,3-dihydroxypropylamino)pyridin-2-yl)methanone]
